Results from patent publication US9181266B2, “2-piperidin-1-yl-acetamide compounds for use as tankyrase inhibitors” (NOVARTIS AG, priority 2011, dated 2015).

How the values were obtained:
Human PARP1 = Human PARP1 (Homo sapiens (Human), UniProt P09874); test: PARP1 autoparsylation assay (LC/MS detection of nicotinamide); format: biochemical; settings: 20 nM enzyme, 250 μM β-NAD+, 60 min
Protocol: (§1) The autoparsylation activity of the TNKS 1/2 or PARP1/2 enzymes was measured by the liquid chromatography-mass spectrometry (LC/MS) detection of nicotinamide as readout. Compound activity in inhibiting the TNKS and PARP autoparsylation was evaluated by IC50 measurements.

PARP2 = PARP2 (Mus musculus (Mouse), UniProt O88554); test: PARP2 autoparsylation assay (LC/MS detection of nicotinamide); format: biochemical; settings: 20 nM enzyme, 250 μM β-NAD+, 60 min
Chain of PARP2 (O88554 whole entry): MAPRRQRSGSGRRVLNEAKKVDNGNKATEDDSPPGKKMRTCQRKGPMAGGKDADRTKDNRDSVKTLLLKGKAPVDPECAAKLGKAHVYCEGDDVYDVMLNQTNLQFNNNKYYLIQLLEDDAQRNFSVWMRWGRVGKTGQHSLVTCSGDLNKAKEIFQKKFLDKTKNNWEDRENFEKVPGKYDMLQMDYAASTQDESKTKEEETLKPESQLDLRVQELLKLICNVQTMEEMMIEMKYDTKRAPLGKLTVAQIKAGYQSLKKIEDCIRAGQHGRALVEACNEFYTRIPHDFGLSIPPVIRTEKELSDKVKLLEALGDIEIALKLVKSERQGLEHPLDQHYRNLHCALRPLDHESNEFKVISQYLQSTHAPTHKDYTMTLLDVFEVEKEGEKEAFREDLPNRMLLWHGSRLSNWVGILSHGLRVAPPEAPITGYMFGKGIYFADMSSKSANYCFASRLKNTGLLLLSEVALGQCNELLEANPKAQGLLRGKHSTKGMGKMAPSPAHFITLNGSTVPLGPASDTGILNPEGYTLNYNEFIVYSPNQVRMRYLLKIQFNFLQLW
Protocol: as §1

[1] = tested on: Wnt ligand-induced signaling in HEK293 cells; test: Wnt-responsive Super-TOpFlash (STF) luciferase reporter gene assay; format: cell-based; settings: Homo sapiens, Wnt3A condition medium
Outline: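 HEK293 cells (8000/well, 5% FBS medium) treated with 20% mouse L-cell Wnt3A conditioned medium plus compounds in 10-point serial dilution; luciferase read next day. Inhibition calculated relative to Wnt3A-induced signal without compound and background without Wnt3A CM or compound.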

[2] = tested on: Axin2 protein in SW480 cells; test: Cellular ELISA assay of Axin2 protein stabilization; format: cell-based; settings: Homo sapiens, 24 hrs, read-out: Axin AC50
Outline: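 SW480 colorectal cells seeded overnight, treated with compound, then lysed. Axin2 in lysates measured by sandwich ELISA: anti-Axin2 capture antibody coated at 1 μg/ml (pH 9.2), lysate 2 h at room temperature, biotinylated anti-Axin2 detection 2 h, then streptavidin-HRP 30 min.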

[3] = tested on: Non-small lung cancer ABC-1 cells; test: Cellular proliferation assay (CellTiter-Glo); format: cell-based; settings: Homo sapiens, 72 h; ABC-1 cells, 3 days of compound treatment; read-out: ABC-1 IC50
Protocol: Cellular Proliferation Assay to Determine Compound Inhibition of Cancer Cell Growth
Viable cells were measured after 3 days of compound treatment using the CellTiter-Glo assay (Promega, G7570). Assay was performed following the manufacture protocol.

[4] = target: human tankyrase 1 PARP catalytic domain, TNKS1P (Homo sapiens (Human), UniProt O95271); test: TNKS1 autoparsylation assay (LC/MS detection of nicotinamide); settings: read-out: TNKS1 AP IC50, 20 nM enzyme, 250 μM β-NAD+, 60 min
Chain of human tankyrase 1 PARP catalytic domain, TNKS1P (O95271 1112-1317): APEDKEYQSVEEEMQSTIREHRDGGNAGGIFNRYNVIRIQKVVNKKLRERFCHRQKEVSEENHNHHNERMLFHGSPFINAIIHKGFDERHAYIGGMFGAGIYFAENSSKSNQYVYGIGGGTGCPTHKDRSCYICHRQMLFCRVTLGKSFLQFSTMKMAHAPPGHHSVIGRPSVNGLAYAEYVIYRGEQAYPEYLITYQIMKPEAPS

[5] = target: tankyrase 2 protein PARP domain, TNKS2P (Homo sapiens (Human), UniProt Q9H2K2); test: TNKS2 autoparsylation assay (LC/MS detection of nicotinamide); settings: read-out: TNKS2 AP IC50, 20 nM enzyme, 250 μM β-NAD+, 60 min
Chain of tankyrase 2 protein PARP domain, TNKS2P (Q9H2K2 959-1164): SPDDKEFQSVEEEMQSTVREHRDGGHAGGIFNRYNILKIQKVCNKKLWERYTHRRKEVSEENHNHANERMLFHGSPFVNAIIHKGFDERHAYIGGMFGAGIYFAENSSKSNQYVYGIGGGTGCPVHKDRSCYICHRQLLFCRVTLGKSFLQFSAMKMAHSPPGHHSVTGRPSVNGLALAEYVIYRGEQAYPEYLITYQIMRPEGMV
Protocol: Biochemical Assay to Determine Compound Inhibition of TNKS Enzyme Activity
The autoparsylation activity of the TNKS 1/2 or PARP1/2 enzymes was measured by the liquid chromatography-mass spectrometry (LC/MS) detection of nicotinamide as readout. Compound activity in inhibiting the TNKS and PARP autoparsylation was evaluated by IC50 measurements. […] For the background control wells, 10 μL of the 5× quenching solution per well was added prior to the addition of β-NAD^+. The % Inhibition was calculated as: (Control−Sample)/(Control−Background)*100.

[6] = tested on: Herpes Simplex Virus (HSV); settings: cited from earlier work

Chain of Human PARP1 (P09874 whole entry): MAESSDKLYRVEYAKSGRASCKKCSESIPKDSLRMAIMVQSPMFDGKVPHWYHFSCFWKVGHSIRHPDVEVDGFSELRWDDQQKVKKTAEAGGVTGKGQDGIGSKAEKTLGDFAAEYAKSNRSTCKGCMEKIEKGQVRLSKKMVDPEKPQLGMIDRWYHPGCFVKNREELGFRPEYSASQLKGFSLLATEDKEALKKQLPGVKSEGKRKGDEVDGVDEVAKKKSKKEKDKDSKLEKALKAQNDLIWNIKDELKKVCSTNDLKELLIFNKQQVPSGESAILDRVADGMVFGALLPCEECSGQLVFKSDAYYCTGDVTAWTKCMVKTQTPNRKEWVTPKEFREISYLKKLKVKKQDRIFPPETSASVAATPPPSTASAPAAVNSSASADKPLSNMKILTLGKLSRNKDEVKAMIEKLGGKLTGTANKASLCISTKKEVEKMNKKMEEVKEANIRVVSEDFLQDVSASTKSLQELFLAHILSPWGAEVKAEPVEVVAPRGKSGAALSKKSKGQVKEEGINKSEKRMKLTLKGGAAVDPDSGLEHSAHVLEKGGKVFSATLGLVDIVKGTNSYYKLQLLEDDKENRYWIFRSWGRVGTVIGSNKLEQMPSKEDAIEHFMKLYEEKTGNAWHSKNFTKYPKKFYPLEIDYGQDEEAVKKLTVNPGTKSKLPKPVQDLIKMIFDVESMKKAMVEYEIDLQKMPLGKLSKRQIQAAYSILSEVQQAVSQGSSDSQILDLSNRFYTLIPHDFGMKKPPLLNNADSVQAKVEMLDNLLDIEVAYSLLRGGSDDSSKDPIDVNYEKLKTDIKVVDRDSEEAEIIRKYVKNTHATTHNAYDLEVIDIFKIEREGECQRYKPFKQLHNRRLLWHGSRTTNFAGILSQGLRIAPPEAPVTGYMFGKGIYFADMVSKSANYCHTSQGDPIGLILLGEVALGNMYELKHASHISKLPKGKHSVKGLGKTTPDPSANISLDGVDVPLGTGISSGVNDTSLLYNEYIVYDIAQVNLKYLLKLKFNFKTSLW

Compound | IC50 (Human PARP1) | IC50 (PARP2) | IC50 [3] | IC50 [4] | IC50 [5] | IC50 [1] | AC50 [2] | HSV viral growth [6] | HSV viral protein expression [6]
Cc1ccc(C(=O)C2CCN(CC(=O)NCc3nc4c(c(=O)[nH]3)COCC4)CC2)cc1 [Example 83, 2-[4-(4-Methyl-benzoyl)-piperidin-1-yl]-N-(4-oxo-3,5,7,8-tetrahydro-4H-pyrano[4,3-d]pyrimidin-2-ylmethyl)-acetamide] | 8300 ± 3000 nM | 2300 ± 360 nM | > 10000 nM | 64 nM | 18 ± 2 nM | > 10000 nM | > 10000 nM | – | –
CCCOc1ccc(C(=O)C2CCN(CC(=O)NCc3nc4c(c(=O)[nH]3)COCC4)CC2)cc1 [Example 84, N-(4-Oxo-3,5,7,8-tetrahydro-4H-pyrano[4,3-d]pyrimidin-2-ylmethyl)2-[4-(4-propoxy-benzoyl)-piperidin-1-yl]acetamide] | 4800 ± 250 nM | 2130 ± 440 nM | 301 nM | 23 ± 5 nM | 13 ± 2 nM | 11 ± 3 nM | 162 ± 19 nM | – | –
O=C(CN1CCC(C(=O)c2ccc(OCC3CC3)cc2)CC1)NCc1nc2c(c(=O)[nH]1)COCC2 [Example 85, 2-[4-(4-Cyclopropylmethoxy-benzoyl)-piperidin-1-yl]-N-(4-oxo-3,5,7,8-tetrahydro-4H-pyrano[4,3-d]pyrimidin-2-ylmethyl)-acetamide] | 4500 ± 580 nM | 1970 ± 260 nM | 34 nM | 23 ± 2 nM | 10 ± 2 nM | 5.2 ± 0.1 nM | 15 ± 2 nM | – | –
O=C(CN1CCC(C(=O)c2ccc(OC3CCOCC3)cc2)CC1)NCc1nc2c(c(=O)[nH]1)COCC2 [Example 87, N-(4-Oxo-3,5,7,8-tetrahydro-4H-pyrano[4,3-d]pyrimidin-2-ylmethyl)-2-{4-[4-(tetrahydro-pyran-4-yloxy)-benzoyl]-1-yl}-acetamide] | 5800 ± 1300 nM | 2840 ± 330 nM | 32 nM | 67 ± 4 nM | 29 nM | 14 ± 1 nM | 40 ± 6 nM | – | –
O=C(CN1CCC(C(=O)c2ccc(OCCC3CC3)cc2)CC1)NCc1nc2c(c(=O)[nH]1)COCC2 [Example 89, 2-{4-[4-(2-Cyclopropyl-ethoxy)-benzoyl]-piperidin-1-yl}-N-(4-oxo-3,5,7,8-tetrahydro-4H-pyrano[4,3-d]pyrimidin-2-ylmethyl)-acetamide] | 1750 ± 20 nM | 920 ± 340 nM | 87 nM | 21 ± 2 nM | 12 ± 2 nM | 17 ± 4 nM | 52 ± 2 nM | – | –
Oc1nc(-c2ccc(C(F)(F)F)cc2)nc2c1CSCC2 [XAV939] | – | – | – | – | – | – | – | decreased viral growth | suppressed HSV viral protein expression

Now from value to compound, other results behind:

IC50 (Human PARP1) | IC50 (PARP2) | IC50 [3] | IC50 [4] | IC50 [5] | Compound | IC50 [1] | AC50 [2] | HSV viral growth [6] | HSV viral protein expression [6]
2050 ± 370 nM | 885 ± 37 nM | 41 nM | 30 ± 3 nM | 12 ± 1 nM | O=C(CN1CCC(C(=O)c2ccc(OCC3CCC3)cc2)CC1)NCc1nc2c(c(=O)[nH]1)COCC2 [Example 86, 2-[4-(4-Cyclobutylmethoxy-benzoyl)-piperidin-1-yl]-N-(4-oxo-3,5,7,8-tetrahydro-4H-pyrano[4,3-d]pyrimidin-2-ylmethyl)-acetamide] | 820 ± 410 nM | 29 ± 8 nM | – | –
6800 ± 2000 nM | 2370 ± 520 nM | 87 nM | 26 ± 1 nM | 6 nM | COCCOc1ccc(C(=O)C2CCN(CC(=O)NCc3nc4c(c(=O)[nH]3)COCC4)CC2)cc1 [Example 88, 2-{4-[4-(2-Methoxy-ethoxy)-benzoyl]-piperidin-1-yl}-N-(4-oxo-3,5,7,8-tetrahydro-4H-pyrano[4,3-d]pyrimidin-2-ylmethyl)-acetamide] | 21 ± 5 nM | 69 ± 7 nM | – | –
16700 ± 400 nM | 4530 ± 70 nM | 116 nM | 40 ± 10 nM | 20 nM | O=C(CN1CCC(C(=O)c2ccc3c(c2)CCO3)CC1)NCc1nc2c(c(=O)[nH]1)COCC2 [Example 91, 2-[4-(2,3-Dihydro-benzofuran-5-carbonyl)-piperidin-1-yl]-N-(4-oxo-3,5,7,8-tetrahydro-4H-pyrano[4,3-c]pyrimidin-2-ylmethyl)-acetamide] | 10 ± 7 nM | 53 ± 25 nM | – | –
17100 ± 800 nM | 4260 ± 210 nM | 2010 nM | 33 ± 14 nM | 12 nM | COc1ccc(C(=O)C2CCN(CC(=O)NCc3nc4c(c(=O)[nH]3)COCC4)CC2)cc1C [Example 93, 2-[4-(4-Methoxy-3-methyl-benzoyl)-piperidin-1-yl]-N-(4-oxo-3,5,7,8-tetrahydro-4H-pyrano[4,3-d]pyrimidin-2-ylmethyl)-acetamide] | 52 ± 12 nM | 1160 ± 150 nM | – | –
